From ChEMBL document CHEMBL4673290, “Diazaspirononane Nonsaccharide Inhibitors of O-GlcNAcase (OGA) for the Treatment of Neurodegenerative Disorders” (J Med Chem, 2020)

Experiment: Selectivity ratio of IC50 for inhibition of clostridium perfringens OGA to IC50 for Inhibition of human recombinant full-length OGA transcript variant 1 expressed in HEK293T cells
Assay type: cell-based

`CC(=O)Nc1ncc(CN2CC3(CCN(c4cc(C)nc5ncnn45)C3)C2)s1` gave a Ratio IC50 of 100.
Work on `CC(=O)Nc1ncc(CN2CCC3(CCN(c4cc(C)nc5ncnn45)C3)C2)s1` (configuration not stated) yielded a Ratio IC50 of 100.
